Measurements from EPA's ToxValDB 9.5 (doi:10.2903/j.efsa.2011.2159).
In brackets after ≈: the same amount, converted by molar mass.

What was measured:
Apis mellifera = conditions: acute; duration: 48 hours; oral; unspecified; mortality
Anas platyrhynchos = conditions: mortality
Mus musculus = conditions: acute; oral; mortality
Colinus virginianus = conditions: mortality; for LD50: acute, oral
Bibionidae = conditions: chronic/long-term; duration: 28 days
Canidae = conditions: chronic; duration: 1 years; oral; Dog Other; clinical signs
Daphnia magna = conditions: chronic/long-term; duration: 21 days; reproduction
Aphidius rhopalosiphi = conditions: not reported; mortality

**Q.** Which results are given for Cc1c(COC(=O)[C@@H]2[C@H](/C=C(\Cl)C(F)(F)F)C2(C)C)cccc1-c1ccccc1 [Bifenthrin]?
**A.** LD50 (Apis mellifera): 0.1 µg/piece; LD50 (Anas platyrhynchos; acute, oral, unspecified): > 2150 mg/kg; NOEC (Anas platyrhynchos; reproductive): 75 mg/kg; NOEC (Anas platyrhynchos; short-term, oral, feed): 312 mg/kg; LD50 (Mus musculus): 42.5 mg/kg; LD50 (Colinus virginianus; diet): 569 mg/kg-day; LD50 (Colinus virginianus): 1800 mg/kg; NOEC (Colinus virginianus; reproduction developmental): 75 mg/kg-day; NOEC (Bibionidae): 0.00032 mg/L; NOAEL (Canidae): 1.5 mg/kg-day; LC50 (Oncorhynchus mykiss; acute, duration: 96 hours, mortality): 0.1 ng/mL (≈ 0.236 nM); NOEC (Oncorhynchus mykiss; chronic/long-term, duration: 30 days, other): 1.2e-05 mg/L; NOEC (Daphnia magna): 9.5e-07 mg/L; LEL (Aphidius rhopalosiphi): 60 g/ha; NOAEL (Rattus norvegicus; developmental, development): > 2 mg/kg-day; NOAEL (Rattus norvegicus; reproduction developmental, reproduction): 3 mg/kg-day; NOAEL (Rattus norvegicus; subchronic, duration: 90 days, oral, neurology): 2.9 mg/kg-day; LC50 (Tagia sp.; acute, duration: 14 days, mortality): > 16 mg/kg; NOEC (Tagia sp.; chronic/long-term, duration: 56 days, reproduction): 2.16 mg/kg
